Assay results reported in article PMC12797170, “Potent Competitive Inhibitors of Ecto-5′-nucleotidase (CD73) based on 6‑(Het)aryl-7-deazapurine Ribonucleoside 5′‑O‑Bisphosphonates” (ACS Pharmacology & Translational Science, 2025).
Converted amounts (≈) assume the structure as drawn.

Legend:
in vitro [1] = details: human, plasma
[2] = Kinetic solubility in PBS; assay type: physicochemical; details: phosphate-buffered saline, pH 7.4, aqueous buffer, kinetic from dmso stock
Description: Test compounds were prepared as 10 mM stock solutions in DMSO and diluted in phosphate-buffered saline (PBS, pH 7.4) to a 100 μM solution, which was then aliquoted in duplicate. The duplicate samples were incubated in Multiscreen PCF Filter Plates (Merck Millipore) with sealed bottom at room temperature on a shaker for 2 h to allow equilibration. Following incubation, the samples were centrifuged into nonsterile, flat-bottom 96-well plates at 2,200 RCF for 12 min. Supernatants were then diluted 1:99 in a solution of 50% acetonitrile containing 0.1% DMSO. The diluted samples were transferred to 384-well Echo plates, which contained prespotted calibration standards prepared by Echo transfer of 10 mM and 1 mM DMSO stock solutions, resulting in calibration points ranging from 0.05 to 4 μM. Samples and standards were subsequently analyzed by Echo-MS.

[3] = target: T1, recombinant human CD73 (hCD73) (Homo sapiens, UniProt P21589); assay: CD73 activity assay on recombinant human CD73; assay type: biochemical; details: ΔGexp = RT ln Ki
T1 sequence (P21589 27-574): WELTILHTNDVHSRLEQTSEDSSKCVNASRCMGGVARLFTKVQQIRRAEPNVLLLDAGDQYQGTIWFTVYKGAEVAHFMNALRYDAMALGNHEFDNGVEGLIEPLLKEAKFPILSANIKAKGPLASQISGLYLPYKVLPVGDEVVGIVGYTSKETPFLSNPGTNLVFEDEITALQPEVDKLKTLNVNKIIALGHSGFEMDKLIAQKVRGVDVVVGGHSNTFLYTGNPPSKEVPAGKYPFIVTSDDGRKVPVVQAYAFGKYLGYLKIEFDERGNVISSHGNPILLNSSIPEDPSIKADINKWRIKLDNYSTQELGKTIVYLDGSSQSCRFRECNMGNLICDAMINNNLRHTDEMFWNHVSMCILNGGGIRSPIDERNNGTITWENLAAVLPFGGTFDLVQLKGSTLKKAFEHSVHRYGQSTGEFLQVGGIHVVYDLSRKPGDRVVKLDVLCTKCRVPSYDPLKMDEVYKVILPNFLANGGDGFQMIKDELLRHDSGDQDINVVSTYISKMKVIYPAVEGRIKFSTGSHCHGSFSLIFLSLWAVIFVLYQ

[4] = Microsomal stability assay, human liver microsomes; assay type: in vitro ADME; details: for Mics (hu) comp remaining 60 min: 10 μM; for microsomal CLint at 10 µM: pooled liver microsomes, pH 7.4, read-out: Mics (hu) CLint
[5] = Microsomal stability assay, mouse liver microsomes; assay type: in vitro ADME; details: for Mics (m) comp remaining 60 min: 10 μM; for microsomal CLint at 10 µM: pooled liver microsomes, pH 7.4, read-out: Mics (m) CLint
[6] = Plasma protein binding, mouse plasma; assay type: in vitro ADME; details: mouse, plasma, mouse plasma protein binding; read-out: PPB (m) (converted)
Description: (§1) Plasma protein binding of the investigated compounds was determined using equilibrium dialysis in single-use Rapid Equilibrium Dialysis devices with an 8 kDa molecular weight cutoff (Thermo Fisher Scientific), following the manufacturer’s protocol. In brief, 50 μL of undiluted human plasma (Biowest), spiked with the test compound at a final concentration of 100 μM, was added to the sample chamber, while 300 μL of phosphate-buffered saline (PBS) was placed in the buffer chamber. Devices were incubated for 4 h at 37 °C with gentle shaking.
(§2) After dialysis, 7.5 μL aliquots from both the plasma and buffer chambers were transferred directly into wells of a 384-well plate. To equalize the matrices for downstream processing, 7.5 μL of PBS was added to each plasma aliquot, and 7.5 μL of plasma was added to each buffer aliquot. Proteins were precipitated by adding four volumes of ice-cold methanol to each well, followed by thorough mixing and incubation at – 20 °C for 30 min. Plates were then stored overnight at 8 °C. Prior to analysis, the plate was centrifuged at 2,000 × g for 20 min at 8 °C. […] The fraction of unbound compound was calculated using the following equations: %Free=c(bufferchamber)/c(plasmachamber)*100% %Bound=100%−%Free

in vitro [7] = details: mouse, plasma
[8] = Plasma protein binding, equilibrium dialysis, human plasma; assay type: in vitro ADME; details: undiluted plasma
Description: as §1, §2

[9] = In vivo pharmacokinetic study, intravenous; parameters: species or system male CD-1 mice; details: plasma, 1 mg/kg, intravenous; for half-life: male, CD-1, mouse, iv, footnote: t1/2 stability in plasma, text: half-life in mouse PK; for clearance: mouse, male CD-1 mice, single dose, read-out: Cl (obs), observed clearance
Description: The pharmacokinetic study was performed by Bienta (Enamine Biology Services) using male CD-1 mice (3 animals, 9 weeks old, body weight ranging from 29.2 to 33.7 g) following intravenous administration. Levels of the test compound were determined by LC-MS/MS in blood plasma over time (seven sampling time points: 5, 15, 30, 60, 120, 240, and 480 min) after a single dose.
Animal treatment and samples preparation were conducted by the Animal Laboratory personnel at Enamine/Bienta.

HepG2 = assay: In vitro cytotoxic activity; assay type: cell-based; details: Homo sapiens
Description: (§3) All the compounds were also tested for their in vitro cytotoxic activity on a small panel of four cancer cell lines (CCRF-CEM, HepG2, HeLa S3, HL-60) and nonmalignant human dermal fibroblasts (NHDF).

HeLa S3 = assay: In vitro cytotoxic activity; assay type: cell-based; details: Homo sapiens
Description: as §3

[10] = system: nonmalignant human dermal fibroblasts (NHDF); assay: In vitro cytotoxic activity; assay type: cell-based
Description: as §3

CCRF-CEM = assay: In vitro cytotoxic activity; assay type: cell-based; details: Homo sapiens
Description: as §3

HL-60 = assay: In vitro cytotoxic activity; assay type: cell-based; details: Homo sapiens
Description: as §3

[11] = Table 6, human plasma, read-out: fup, fraction unbound in human plasma
[12] = human plasma protein binding, read-out: PPB (hu) (converted)

| SMILES | half-life at 10 µM (in vitro [1]) [h] | solubility at 2 h [2] [µM] | dG_exp, experimental binding free energy [3] | Mics (hu) comp remaining 60 min [4] [%] | Mics (m) comp remaining 60 min [5] [%] | fraction unbound at 4 h, 100 µM [6] | half-life at 10 µM (in vitro [7]) [h] | fraction unbound at 4 h, 100 µM [8, 11] | half-life [9] [h] | clearance [9] [mL/min/kg] | microsomal CLint at 10 µM [4] [µL/min/mg] | microsomal CLint at 10 µM [5] [µL/min/mg] | IC50 (HepG2) [µM] | IC50 (HeLa S3) [µM] | IC50 [10] [µM] | IC50 (CCRF-CEM) [µM] | IC50 (HL-60) [µM] | fraction unbound at 4 h, 100 µM [8, 12] |
| --- | --- | --- | --- | --- | --- | --- | --- | --- | --- | --- | --- | --- | --- | --- | --- | --- | --- | --- |
| O=P(O)(O)CP(=O)(O)OC[C@H]1O[C@@H](n2ccc3c(-c4ccccc4)ncnc32)[C@@H](F)[C@@H]1O [34A.5, [(5-{[4-Phenyl-7H-pyrrolo[2,3-d]pyrimidin-7-yl]-2-deoxy-2-fluoro-β-D-arabinosyl}oxy)phosphonomethyl]phosphonic Acid] | > 2 | 245 (≈ 119 µg/mL) | –11.2 kcal/mol | 93 | 97 | 0.2 | > 2 | 0.022 | 5.1 | 3.3 |  |  |  |  |  |  |  |  |
| O=P(O)(O)CP(=O)(O)OC[C@H]1O[C@@H](n2cnc3c(-c4ccc5ccccc5c4)ncnc32)[C@H](O)[C@@H]1O [31A.7] | > 2 | 86 (≈ 46.1 µg/mL) |  | 106 | 87 | 0.224 | > 2 |  |  |  | < 1 | 6 | 4.8 | > 10 | 3.7 | > 10 | 7.6 | ≤ 0.01 |
| O=P(O)(O)CP(=O)(O)OC[C@H]1O[C@@H](n2ccc3c(-c4ccc(-c5ccccc5)cc4)ncnc32)[C@H](O)[C@@H]1O [4A.9] | > 2 | 64 (≈ 35.9 µg/mL) |  |  |  | 0.144 | > 2 |  |  |  |  |  | > 10 | > 10 | > 10 | > 10 | > 10 | 0.011 |
| O=P(O)(O)CP(=O)(O)OC[C@H]1O[C@@H](n2ccc3c(-c4ccncc4)ncnc32)[C@H](O)[C@@H]1O [4A.16] | > 2 | 79 (≈ 38.4 µg/mL) |  | 94 | 80 | 0.833 | > 2 |  |  |  | 3 | 9 | > 10 | > 10 | > 10 | > 10 | > 10 | 0.304 |
| O=P(O)(O)CP(=O)(O)OC[C@H]1O[C@@H](n2ccc3c(-c4ccc(F)c5ccccc45)ncnc32)[C@@H](F)[C@@H]1O [34A.23] | > 2 | 100 (≈ 55.5 µg/mL) | –12.3 kcal/mol | 98 | 116 | 0.017 | > 2 | 0.001 |  |  |  |  |  |  |  |  |  |  |
| O=P(O)(O)CP(=O)(O)OC[C@H]1O[C@@H](n2ccc3c(-c4ccc5c(c4)CCCC5)ncnc32)[C@@H](F)[C@@H]1O [34A.17] | > 2 | 73 (≈ 39.5 µg/mL) | –11.8 kcal/mol | 90 | 89 | 0.253 | > 2 | 0.05 |  |  |  |  |  |  |  |  |  |  |
| O=P(O)(O)CP(=O)(O)OC[C@H]1O[C@@H](n2ccc3c(-c4cccc5c4CCCC5)ncnc32)[C@@H](F)[C@@H]1O [34A.12] | > 2 | 75 (≈ 40.6 µg/mL) | –12.4 kcal/mol | 96 | 115 | 0.055 | > 2 | 0.007 |  |  |  |  |  |  |  |  |  |  |
| O=P(O)(O)CP(=O)(O)OC[C@H]1O[C@@H](n2ccc3c(-c4ccc5ccccc5c4)ncnc32)[C@@H](F)[C@@H]1O [34A.7] | > 2 | 82 (≈ 44.1 µg/mL) | –11.8 kcal/mol | 94 | 90 | 0.022 | > 2 | 0.002 | 3.13 | 7.2 |  |  |  |  |  |  |  |  |
| O=P(O)(O)CP(=O)(O)OC[C@H]1O[C@@H](n2ccc3c(-c4ccnc5ccccc45)ncnc32)[C@@H](F)[C@@H]1O [34A.28] | > 2 | 100 (≈ 53.8 µg/mL) | –12.5 kcal/mol | 102 | 101 | 0.058 | > 2 | 0.014 | 1.32 | 18 |  |  |  |  |  |  |  |  |
| O=P(O)(O)CP(=O)(O)OC[C@H]1O[C@@H](n2ccc3c(-c4cccc5ccccc45)ncnc32)[C@@H](F)[C@@H]1O [34A.6] | > 2 | 167 (≈ 89.7 µg/mL) | –11.8 kcal/mol | 97 | 94 | 0.065 | > 2 | 0.017 | 1.3 | 19 |  |  |  |  |  |  |  |  |
